Results from US20260176279A1, “DUAL RAF AND TUBULIN INHIBITORS AND METHODS OF USE THEREOF” (Deciphera Pharmaceuticals, LLC, priority 2023, published 2026).
Read-outs that look alike come from different tables or passages of the source.

Experiments:
HCT-116 cells = assay: HCT-116 Cell Proliferation Assay; assay type: cell-based; conditions: Homo sapiens
Protocol: HCT-116 cells (catalog #CCL-247) are obtained from the American Type Culture Collect (ATCC, Manassas, VA). Briefly, cells are grown in McCoy's 5A supplemented with 10% characterized fetal bovine serum (Invitrogen, Carlsbad, CA) and 1% Penicillin/Streptomycin/L-Glutamine at 37° C., 5% CO2, and 95% humidity. Cells are expanded until reaching 70-95% confluency at which point they are sub-cultured or harvested for assay use. A serial dilution of test compound is dispensed into a 384-well black clear bottom plate in triplicate. 375 cells are added per well in 50 μL complete growth medium in the 384-well plate. Plates are incubated for 67 to 72 h at 37° C., 5% CO2, and 95% humidity. At the end of the incubation, 40 μL of a […] solution of resazurin (Sigma, St. Louis, MO) in PBS is added to each well of the plate and plates are incubated for an additional 4 to 5 hours at 37° C., 5% CO2, and 95% humidity. Plates are read on a Synergy2 or equivalent reader (Biotek, Winooski, VT) using an excitation of 540 nm and an emission of 600 nm. Data is analyzed using Prism software (Graphpad, San Diego, CA) to calculate IC50 values.

B-Raf kinase = molecular target: T1, B-Raf kinase (Homo sapiens, UniProt P15056); assay: Biochemical Assay for B-Raf (coupled pyruvate kinase/lactate dehydrogenase assay)
T1 construct: GST (N); purchased Sigma

MiaPaca-2 cells = assay: MiaPaca-2 Cell Proliferation Assay; assay type: cell-based; conditions: Homo sapiens, MIA PaCa-2
Protocol: MiaPaca-2 cells (catalog #CRL-1420) are obtained from the American Type Culture Collect (ATTC, Manassas, VA). Briefly, cells were grown in DMEM supplemented with 10% characterized fetal bovine serum (Invitrogen, Carlsbad, CA), 2.5% New Zealand sourced horse serum and 1% Penicillin/Streptomycin/L-Glutamine at 37° C., 5% CO2, and 95% humidity. Cells are expanded until reaching 70-95% confluency at which point they are sub-cultured or harvested for assay use. For assays completed in 96-well plates, a serial dilution of test compound is dispensed into a 96-well black clear bottom plate in triplicate. Three thousand cells are added per well in 200 μL complete growth medium in the 96-well plate. Plates are incubated for 67 to 72 h at 37° C., 5% CO2, and 95% humidity. At the end of the incubation, 40 μL of a […] solution of resazurin (Sigma, St. Louis, MO) in PBS is added to each well of the plate and plates are incubated for an additional 5 to 6 hours at 37° C., 5% CO2, and 95% humidity. For 384-well assays, a threefold, 8-point serial dilution of compound was spotted column wise into a 384 well black, clear bottom, tissue culture treated plate using the Beckman Coulter Echo 650. Likewise, a threefold, 8-point serial dilution of cobimetinib was spotted row wise into the 384 well black, clear bottom plate containing compound. DMSO concentration was constant across all wells at 0.4%. Seven hundred fifty cells are added per well in 50 μL complete growth medium in each 384-well plate. Plates are incubated for 67 to 72 h at 37° C., 5% CO2, and 95% humidity. At the end of the incubation, 10 μL of a 440 μM solution of resazurin (Sigma, St. Louis, MO) in PBS is added to each well of the plate and plates are incubated for an additional 4 to 6 h at 37° C., 5% CO2, and 95% humidity. Plates are read on a Synergy2 or equivalent reader (Biotek, Winooski VT) using an excitation of 540 nm and an emission of 600 nm. Data is analyzed using Prism software (Graphpad, San Diego, CA) to calculate IC50 values.

Pa16c cells = assay: Pa16c Cell Proliferation Assay; assay type: cell-based; conditions: Table 2, inhibition of cell proliferation
Protocol: Pa16c cells are obtained from Dr. Channing Der, University of North Carolina at Chapel Hill. Briefly, cells are grown in Dulbecco's Modified Eagle Medium supplemented with 10% characterized fetal bovine serum (Invitrogen, Carlsbad, CA) and 1% Penicillin/Streptomycin/L-Glutamine at 37° C., 5% CO2, and 95% humidity. Cells are expanded until reaching 70-95% confluency at which point they are sub-cultured or harvested for assay use. A serial dilution of test compound is dispensed into a 384-well black clear bottom plate in triplicate. 750 cells are added per well in 50 μL complete growth medium in the 384-well plate. Plates are incubated for 67 to 72 hours at 37° C., 5% CO2, and 95% humidity. At the end of the incubation, 40 μL of a […] solution of resazurin (Sigma, St. Louis, MO) in PBS is added to each well of the plate and plates are incubated for an additional 18 to 24 hours at 37° C., 5% CO2, and 95% humidity. Plates are read on a Synergy2 or equivalent reader (Biotek, Winooski, VT) using an excitation of 540 nm and an emission of 600 nm. Data is analyzed using Prism software (Graphpad, San Diego, CA) to calculate IC50 values.

HPAF-II cells = assay: HPAF-II Cell Proliferation Assay; assay type: cell-based; conditions: Homo sapiens
Protocol: HPAF-II cells (catalog #CRL-1997) are obtained from the American Type Culture Collect (ATCC, Manassas, VA). Briefly, cells are grown in Minimum Essential Media supplemented with 10% characterized fetal bovine serum (Invitrogen, Carlsbad, CA) and 1% Penicillin/Streptomycin/L-Glutamine at 37° C., 5% CO2, and 95% humidity. Cells are expanded until reaching 70-95% confluency at which point they are sub-cultured or harvested for assay use. A serial dilution of test compound is dispensed into a 384-well black clear bottom plate in triplicate. 750 cells are added per well in 50 μL complete growth medium in the 384-well plate. Plates are incubated for 115 to 120 h at 37° C., 5% CO2, and 95% humidity. At the end of the incubation, 40 μL of a […] solution of resazurin (Sigma, St. Louis, MO) in PBS is added to each well of the plate and plates are incubated for an additional 18 to 24 h at 37° C., 5% CO2, and 95% humidity. Plates are read on a Synergy2 or equivalent reader (Biotek, Winooski, VT) using an excitation of 540 nm and an emission of 600 nm. Data is analyzed using Prism software (Graphpad, San Diego, CA) to calculate IC50 values.

C-Raf kinase = molecular target: T2, C-Raf kinase (Homo sapiens, UniProt P04049, Y340D/Y341D); assay: Biochemical Assay for C-Raf (coupled pyruvate kinase/lactate dehydrogenase assay)
T2 construct: C-Raf residues 306-end; Y340D, Y341D with N-; GST (N); purchased Eurofins

tubulin = assay: Cellular Tubulin Polymerization Assay (HCT-116 cells); assay type: cell-based; conditions: Table 3, HCT-116 cells; read-out: Tubulin Cellular IC50
[1] = Table 2, inhibition of cell proliferation, read-out: HCT-116
[2] = Table 1, inhibition of biochemical activity, read-out: BRAF
[3] = Table 2, inhibition of cell proliferation, read-out: MiaPaca-2
[4] = Table 2, inhibition of cell proliferation, read-out: HPAF-II
[5] = Table 1, inhibition of biochemical activity, read-out: CRAF
[6] = HCT-116, Table 3, read-out: HCT-116 IC50
[7] = Table 3, read-out: MiaPaca-2 IC50
[8] = HPAF-II, Table 3, read-out: HPAF-II IC50

T1 sequence (P15056 416-766): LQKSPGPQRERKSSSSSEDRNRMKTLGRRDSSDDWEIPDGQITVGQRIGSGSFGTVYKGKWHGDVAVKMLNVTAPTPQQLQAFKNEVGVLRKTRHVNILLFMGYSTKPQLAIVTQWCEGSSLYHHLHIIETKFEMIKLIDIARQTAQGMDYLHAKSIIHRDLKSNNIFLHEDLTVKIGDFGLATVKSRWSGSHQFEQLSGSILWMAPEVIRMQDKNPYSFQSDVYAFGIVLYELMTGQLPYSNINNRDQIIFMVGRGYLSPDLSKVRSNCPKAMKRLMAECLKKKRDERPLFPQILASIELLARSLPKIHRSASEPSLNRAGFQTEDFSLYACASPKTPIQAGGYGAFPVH
T2 sequence (P04049 307-648 Y340D/Y341D): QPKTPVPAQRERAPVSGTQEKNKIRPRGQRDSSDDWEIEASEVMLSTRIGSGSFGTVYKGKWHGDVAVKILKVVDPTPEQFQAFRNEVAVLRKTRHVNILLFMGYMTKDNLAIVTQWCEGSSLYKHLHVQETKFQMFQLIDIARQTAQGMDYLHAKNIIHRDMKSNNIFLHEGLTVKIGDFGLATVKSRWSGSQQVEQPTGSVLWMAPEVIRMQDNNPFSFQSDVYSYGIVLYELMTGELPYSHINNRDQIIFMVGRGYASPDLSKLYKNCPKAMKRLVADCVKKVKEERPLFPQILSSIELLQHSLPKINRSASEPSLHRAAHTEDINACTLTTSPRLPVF

IC50 (HCT-116 cells; [1]) [nM]	IC50 (B-Raf kinase; [2]) [nM]	IC50 (MiaPaca-2 cells; [3]) [nM]	IC50 (C-Raf kinase; [5]) [nM]	IC50 (HCT-116 cells; [6]) [nM]	IC50 (B-Raf kinase; Table 3, read-out: BRAF IC50) [nM]	IC50 (tubulin) [nM]	IC50 (MiaPaca-2 cells; [7]) [nM]	IC50 (C-Raf kinase; Table 3, read-out: CRAF IC50) [nM]	Structure (SMILES)	IC50 (Pa16c cells) [nM]	IC50 (HPAF-II cells; [4]) [nM]	IC50 (HPAF-II cells; [8]) [nM]
500 to 1000	< 100	500 to 1000	< 100	–	–	–	–	–	Cc1ccc(NC(=O)Nc2cc(C(F)(F)F)cnn2)cc1-c1ccnc(-c2ccnc(NC(=O)C3CC3)c2)c1 [Example 22, N-(4-(2-methyl-5-(3-(5-(trifluoromethyl)pyridazin-3-yl)ureido)phenyl)-[2,4′-bipyridin]-2′-yl)cyclopropanecarboxamide]	1000 to 10000	1000 to 10000	–
< 100	100 to 500	< 100	< 100	< 100	100 to 500	< 100	< 100	< 100	Cc1ccc(NC(=O)Nc2ccc(C(F)(F)F)nc2)cc1-c1cc(OC[C@H](C)O)nc(N2CCOCC2)c1 [Example 39]	100 to 500	< 100	< 100
< 100	100 to 500	< 100	< 100	< 100	100 to 500	–	< 100	100 to 500	CNc1cc(-c2cc(-c3cc(NC(=O)Nc4ccc(C(F)(F)F)nc4)ccc3C)cc(OCCO)n2)ccn1 [Example 17]	< 100	500 to 1000	500 to 1000
< 100	100 to 500	< 100	< 100	< 100	100 to 500	< 100	< 100	100 to 500	Cc1ccc(NC(=O)Nc2ccc(C(F)(F)F)nc2)cc1-c1cc(N2CCOCC2)nc(N2CCC(O)CC2)n1 [Example 34]	500 to 1000	100 to 500	100 to 500
< 100	< 100	< 100	< 100	< 100	< 100	< 100	< 100	< 100	CC(=O)Nc1cc(-c2cc(-c3cc(NC(=O)Nc4ccc(C(F)(F)F)nc4)ccc3C)ccn2)ccn1 [Example 4]	< 100	100 to 500	100 to 500
< 100	< 100	< 100	< 100	< 100	< 100	< 100	< 100	< 100	CC(=O)Nc1cc(-c2cc(-c3cc(NC(=O)Nc4ccc(C(F)(F)F)nc4)ccc3C)cn(C)c2=O)ccn1 [Example 9]	100 to 500	500 to 1000	500 to 1000
< 100	< 100	< 100	< 100	< 100	100 to 500	< 100	< 100	< 100	Cc1ccc(NC(=O)Nc2ccc(C(F)(F)F)nc2)cc1-c1cc(OC[C@@H](C)O)nc(N2CCOCC2)c1 [Example 40]	100 to 500	< 100	< 100
